Measured values as given in paper PMC6238539, “Discovery of a cofactor-independent inhibitor of Mycobacterium tuberculosis InhA” (Life Science Alliance, 2018).
Values after ≈ are worked out from the molar mass of the structure shown. Values joined by “and” are separate entries in the source; they are usually repeats but may differ in a detail not shown here. Identical values can stand only once. Like-named read-outs stand apart in the source and are kept apart here.

Experiments:
M. tuberculosis H37Rv = type: cell-based, Mycobacterium tuberculosis
[1] = tested on: M. tuberculosis inhA promoter and coding sequence mutants; type: cell-based, Mycobacterium tuberculosis; conditions: read-out: Liquid IC90
[2] = tested on: M. tuberculosis drug-resistant clinical isolates; assay: microbe, parasite or virus in culture; type: cell-based; conditions: Mycobacterium tuberculosis
M. tuberculosis = conditions: cited from earlier work
[3] = tested on: M. tuberculosis inhA promoter and coding sequence mutants; conditions: cited from earlier work
[4] = tested on: M. tuberculosis H37Rv-resistant mutants; type: cell-based, Mycobacterium tuberculosis; conditions: read-out: Liquid media IC90
[5] = strains of Table 3, ref McNeil et al, 2017

N#Cc1ccc(Oc2ccc3c(c2)COB3O)c(/C=N/O)c1 [AN3438]
frequency of resistance (M. tuberculosis H37Rv): 6.5 × 10^−7

CCS(=O)(=O)N1N=Cc2ccc(Oc3ccc(C(F)(F)F)cc3/C=N/O)cc2B1O [AN12855]
frequency of resistance (M. tuberculosis H37Rv): 6.5 × 10^−7
IC90 [1]: 60 nM
MIC ([2]; H37RV, read-out: MIC): 0.13 µg/mL (≈ 0.295 µM)
MIC ([2]; read-out: MIC): 0.25 µg/mL (≈ 0.567 µM)

NNC(=O)c1ccncc1 [INH, isoniazid]
frequency of resistance (M. tuberculosis): 1 × 10^−5
IC90 ([3]; strain H37Rv (WT), ref McNeil et al (2017), read-out: Liquid IC90): 100 nM
Liquid IC90 (fold shift versus WT) ([3]; strain LP-0532543-RM1, InhA S94A, ref McNeil et al (2017)): 2×
Liquid IC90 (fold shift versus WT) ([3]; strain LP-0532543-RM2, InhA D148E, ref McNeil et al (2017)): 1×
Liquid IC90 (fold shift versus WT) ([3]; strain LP-0532543-RM3, InhA A206E, ref McNeil et al (2017)): 1×
Liquid IC90 (fold shift versus WT) ([3]; strain LP-0532543-RM4, InhA M161L, ref McNeil et al (2017)): 1×
Liquid IC90 (fold shift versus WT) ([3]; strain LP-0532543-RM6, InhA M103T, ref McNeil et al (2017)): 1×
Liquid IC90 (fold shift versus WT) ([3]; strain LP-0532543-RM7, InhA G205A, ref McNeil et al (2017)): 1×
Liquid IC90 (fold shift versus WT) ([3]; strain LP-0532543-RM9, InhA I202F, ref McNeil et al (2017)): 1×
Liquid IC90 (fold shift versus WT) ([3]; strain LP-0532543-RM11, InhA G205S, ref McNeil et al (2017)): 1×
Liquid IC90 (fold shift versus WT) ([3]; strain LP-0532543-RM13, InhA F41L, ref McNeil et al (2017)): 1×
Liquid IC90 (fold shift versus WT) ([3]; strain LP-0532543-RM14, InhA G212D, ref McNeil et al (2017)): 1×
Liquid IC90 (fold shift versus WT) ([3]; strain LP-0532543-RM16, InhA I215S, ref McNeil et al (2017)): 1×
Liquid IC90 (fold shift versus WT) ([3]; strain LP-0532543-RM18, InhA S19W, ref McNeil et al (2017)): 1×
Liquid IC90 (fold shift versus WT) ([3]; strain LP-0532543-RM19, InhA I47L, ref McNeil et al (2017)): 1×
Liquid IC90 (fold shift versus WT) ([3]; strain LP-0532543-RM28, InhA I21M, ref McNeil et al (2017)): 1×
Liquid IC90 (fold shift versus WT) ([3]; strain LP-0532543-RM30, fabG1inhA promoter c-15t, ref McNeil et al (2017)): 5×
Liquid IC90 (fold shift versus WT) ([3]; strain LP-0532543-RM34, InhA I21V, ref McNeil et al (2017)): 2×
Liquid IC90 (fold shift versus WT) ([3]; strain LP-0532543-RM37, InhA L269R, ref McNeil et al (2017)): 1×
Liquid IC90 (fold shift versus WT) ([3]; strain LP-0532543-RM41, InhA R195G, ref McNeil et al (2017)): 2×
Liquid IC90 (fold shift versus WT) ([3]; strain LP-0532543-RM301, promoter c-15t, InhA N159K, ref McNeil et al (2017)): 3×
Liquid IC90 (fold shift versus WT) ([3]; strain LP-0532543-RM304, promoter c-15t, InhA T162M, ref McNeil et al (2017)): 4×
Liquid IC90 (fold shift versus WT) ([3]; strain LP-0532543-RM311, promoter c-15t, InhA M161V, ref McNeil et al (2017)): 5×
Liquid IC90 (fold shift versus WT) ([3]; strain LP-0532543-RM313, promoter c-15t, InhA G205D, ref McNeil et al (2017)): 2×
Liquid IC90 (fold shift versus WT) ([3]; strain LP-0532543-RM314, promoter c-15t, InhA I47M, ref McNeil et al (2017)): 5×
Liquid IC90 (fold shift versus WT) ([3]; strain LP-0532543-RM318, promoter c-15t, InhA M199L, ref McNeil et al (2017)): 4×
Liquid IC90 (fold shift versus WT) ([3]; strain LP-0532543-RM320, promoter c-15t, InhA G208D, ref McNeil et al (2017)): 4×
Liquid IC90 (fold shift versus WT) ([3]; strain LP-0571426-RM24, InhA I194T, ref McNeil et al (2017)): 3×
IC90 [4]: 300 nM and 100 nM and 400 nM
MIC ([2]; H37RV, read-out: MIC): < 0.06 µg/mL

CC1(C)CCC(Cc2cc(O)c(-c3ccccc3)c(=O)[nH]2)CC1 [NITD-916]
frequency of resistance (M. tuberculosis; ref Manjunatha et al, 2015, Martínez-Hoyos et al, 2016): 1 × 10^−8
resistance of inhA / fabG1inhA promoter mutant strains [3, 5]: resistant

CO[C@H]1/C=C/O[C@@]2(C)Oc3c(C)c(O)c4c(O)c(c(/C=N/N5CCN(C)CC5)c(O)c4c3C2=O)NC(=O)/C(C)=C\C=C\[C@H](C)[C@H](O)[C@@H](C)[C@@H](O)[C@@H](C)[C@H](OC(C)=O)[C@@H]1C [RIF, rifampicin]
MIC [2]: > 16 µg/mL
MIC ([2]; H37RV): < 0.06 µg/mL

Oc1cc(Cl)ccc1Oc1ccc(Cl)cc1Cl [triclosan]
cross-resistance of the mutants [3, 5]: None of the mutants demonstrated cross-resistance
